Results as given in patent publication US20220000798A1, “TRANS-RESVERATROL TOPICAL MEDICATION FOR THE TREATMENT OF PAIN AND METHOD OF MANUFACTURE THEREOF” (Ted's Brain Science, Inc., priority 2017, published 2022).

Key:
[1] = system: AMPK; assay: AMPK activation by resveratrol isomers; assay type: biochemical; conditions: isomer of resveratrol
Excerpt: It is thus realized herein that including cis-resveratrol in a topical medication would be particularly disadvantageous, because it would contribute to the grainy or greasy feeling of the medication without contributing to its AMPK-activating efficacy.

[2] = system: pain; conditions: animal model (rodents); administration by injection; cited from earlier work
[3] = storage stability of trans-resveratrol powder; assay type: physicochemical; conditions: well-sealed containers kept away from light
Method: In one embodiment, trans-resveratrol is prepared in the form of off-white to cream-colored powder with >99% purity as determined by high-performance liquid chromatography (HPLC) methodology. The resulting powder has a melting point of 260-264° C.

Structure (SMILES): Oc1ccc(/C=C\c2cc(O)cc(O)c2)cc1 [Cis-resveratrol]
- AMPK activation [1]: appears not to activate AMPK to any meaningful degree or extent

Structure (SMILES): Oc1ccc(C=Cc2cc(O)cc(O)c2)cc1 [resveratrol]
- efficacy in mitigation of pain [2]: has shown efficacy in mitigation of pain

Structure (SMILES): Oc1ccc(/C=C/c2cc(O)cc(O)c2)cc1 [trans-resveratrol, 3,4′,5-trihydroxystilbene]
- stability over time [3]: over two years
- AMPK activation [1]: activates AMPK
